Assay results: patent publication US20190289849A1, “Novel Plant Growth Regulators and Methods of Using Same” (Duke University, priority 2016, published 2019)
pIC50: −log10 of the molar value. “Also recorded” adds a separate entry of the source.

Tests used:
Arabidopsis thaliana [1] = assay: Lateral root capacity (emerged lateral roots after removal of the primary root apical meristem); assay type: in vivo; settings: for rescue of D15 inhibition of lateral root branching: D15-treated plants, apocarotenoid concentration varied for maximum rescue; for lateral root capacity / branching in combination with D15 (screen): 30 μM D15 plus apocarotenoid, normalized to D15 treatment
lateral root primordia = assay: Lateral root primordia counts with WOX5 (stage 1) and EN7 (stage 3) markers, and primordia emergence; assay type: in vivo, Arabidopsis thaliana
Protocol: All seeds were in the Columbia-0 background. Seeds were sterilized with chlorine gas, incubated in 4° C. water for 2 days, and plated on 1% (wt/vol) Murashige and Skoog (1% MS) media with 1% agar. They were exposed to 100-130 μmol/(m^2s^1) illumination and grown vertically under long-day conditions at 22° C. Plants were analyzed at 7 days after stratification (das), unless noted otherwise. D15-treated media was made using D15 (N-(4-fluorobenzyl)-methoxycinnamic hydroxamic acid) synthesized by LeadGen Labs, LLC solubilized in DMSO. 100 mM D15 stock solution was diluted directly into 1% MS media for final concentrations ranging from 1 μM to 100 μM. For initial experiments testing the ability of apocarotenoids to rescue D15, plants were seeded on 1% MS media containing 30 μM D15 and 100 nM apocarotenoid (diluted from 1 mM stock solutions dissolved in DMSO). For subsequent experiments characterizing the effect of β-cyclocitral, plants were exposed to volatile analytical grade β-cyclocitral (≥97%, Sigma Aldrich) using 100×15 mm partitioned petri dishes. One side of the partition was filled with 25 μM β-cyclocitral diluted in 1% MS media. Seeds were plated on the other side of the partition, on 1% MS media. […] For norflurazone treatments, norflurazone (Chem Service) dissolved in DMSO was diluted to a final concentration of 500 nM norflurazone in 1% MS media. For all experiments, including those performed on tomatoes and rice, plants were never exposed to DMSO concentrations that exceeded 0.1%.
(§1) To measure lateral root capacity, the primary root apical meristem of each seedling was sterilely excised at 7 days. The plants were given 3 days to grow out lateral roots, and then each emerged lateral root was counted using a dissection microscope, as described previously (Van Norman et al., Proceedings of the National Academy of Sciences of the United States of America, 2014. 111(13): p. E1300-E1309). Luciferase activity was measured as previously described, using exposure times of 7 min (Moreno-Risueno, M. A., et al., Science, 2010. 329(5997): p. 1306-1311). WOX5^+ and EN7^+ primordia were counted using a stereo zoom microscope (Zeiss). Lateral and primary root lengths for Arabidopsis thaliana and tomato were measured using ImageJ (National Institutes of Health) software. 3D images of rice root architecture were captured using a 360° revolving platform and these images were analyzed using GiA Roots (www.giaroots.org), as described previously by Topp (2013). Primary root lengths were determined by dissecting the root and measuring the length with a ruler. Shoot mass was measured after removing the shoots and drying them for 10 days at 60° C.
First, the effect of D15 on lateral root branching was characterized and is shown FIG. 1. […] NCEDs are a sub-group of CCDs that cleave carotenoids at the 11, 12′ positions. […] By titrating D15 to its IC50 concentration (30 μM), the lateral root capacity was measured with enhanced sensitivity (FIGS. 1A-B). To determine how D15 inhibits lateral root branching, its effect on the lateral root clock, which establishes the sites of lateral root initiation, was examined. To test this, a synthetic promoter driving luciferase (pDR5:LUC) was utilized. In control roots, luminescence intensity oscillates every six hours (FIG. 1C). Only the root cells that experience the peak oscillation intensity become competent to form lateral root pre-branch sites. […] To further characterize the effect of D15 on lateral root initiation, its effect on two stages of primordia development was determined, as marked by WOX5 (pWOX5:GFP) and EN7 (pEN7:GAL4; UAS:H2A-GFP). These lines allow visualization of the QC at stage 1 of primordia development and the endodermis at stage 3 of development, respectively. […] This further supports the lateral root clock evidence that D15 inhibits the initiation of lateral root primordia.

Heinz tomatoes = assay: Tomato primary and lateral root growth; assay type: in vivo
Protocol: as §1, with “Heinz tomatoes were used for all tomato experiments. Seeds were sterilized using 40% liquid bleach for 30 min, then plated on 1% MS media in 120×120×17 mm square petri dishes. Seeds were kept in the dark at room temperature for 3 days, and then exposed to 100-130 μmol/(m^2s^1) illumination and grown vertically under long-day conditions at 22° C. For treating tomatoes, β-cyclocitral, norflurazone, and D15 were added directly to the media, at the concentrations described in the figures. Norflurazone was diluted to a final concentration of 1 μM in media. Tomato phenotypes were analyzed at 6 das. To measure” for “To measure”, “111(13): p. […]-[…]). Luciferase activity” for “111(13): p. E1300-E1309). Luciferase activity”

lateral root clock = assay: Lateral root clock luminescence (pDR5:LUC) and pre-branch sites; assay type: in vivo, Arabidopsis thaliana
Protocol: as §1
First, the effect of D15 on lateral root branching was characterized and is shown FIG. 1. […] By titrating D15 to its IC50 concentration (30 μM), the lateral root capacity was measured with enhanced sensitivity (FIGS. 1A-B). […]

LeCCD1 = settings: in vitro; cited from earlier work
Arabidopsis thaliana [2] = assay: Primary and lateral root growth on exposure to volatile β-cyclocitral; assay type: in vivo
[3] = test system: Azucena (tropical japonica) rice; assay: Rice root system architecture and shoot weight; assay type: in vivo
Protocol: as §1, with “Azucena (tropical japonica) seeds were dehulled and germinated in the dark for 3 days at 30° C. Germinated seeds were transferred to Yoshida's nutrient solution, solidified with 0.25% gelzan (Caisson Laboratories, Inc.), in 2 L glass cylinders, as described previously (Topp, C. N., et al., Proceedings of the National Academy of Sciences of the United States of America, 2013. 110(18): p. […]-[…].). Rice roots were imaged at 12 das. To measure” for “To measure”, “111(13): p. […]-[…]). Luciferase activity” for “111(13): p. E1300-E1309). Luciferase activity”

Arabidopsis = assay: High concentration (10 mM) apocarotenoid effects on plant growth; assay type: in vivo; settings: for lateral root growth / root length / shoot mass: 10 mM; for herbicidal effect when sprayed on plants / method of lethality (phenotype): 10 mM per FIG. 11
Protocol: FIG. 10 illustrates the effect of high doses of β-cyclocitral and DHAD on root growth. A) The effect of adding small volumes of 10 mM apocarotenoids daily to either the shoots, root tip, or the middle of the root. B) A confocal image of a healthy root stained with propidium iodide, which marks dead cells. C) A root treated with 10 mM β-cyclocitral applied to the tip of the root.
FIG. 11 illustrates the effect of 10 mM apocarotenoids on plant development. A) The percent change in lateral root capacity, normalized to control plants. Abbreviations: dihydro-β-ionone (DHβI), dimethyl-β-cyclocitral (DMβC). β-cyclocitral (β-cyc), pseudoionone (PI), and dihydroactinidiolide (DHAD). B) Confocal image of a control root stained with propidium iodide. C) Image of a root treated with safranal. D) Images of leaves form a control plant. E) Images of leaves from a plant treated with pseudoionone.
At high concentrations (10 mM) of β-cyclocitral or DHAD, root length, shoot mass, and lateral root growth were inhibited. […] In one embodiment, safranal may be detrimental to Arabidopsis at concentrations as low as 500 μM.

[4] = IC50 concentration of D15 (30 μM)

CC(=O)/C=C/C1=C(C)CCCC1(C)C [β-ionone]
rescue of D15 inhibition of lateral root branching (Arabidopsis thaliana [1]): did not have the capacity to rescue

CNc1cnn(-c2cccc(C(F)(F)F)c2)c(=O)c1Cl [norflurazone, 4-chloro-5-(methylamino)-2-(α,α,α-trifluoro-m-tolyl)-3(2H)-pyridazinone]
effect on lateral root development (primordia initiation, maintenance, development, emergence) (lateral root primordia; 500 nM norflurazone in media): blocks normal lateral root development; also recorded: blocked primordia initiation as well as maintenance, post-initiation development, and emergence
primary and lateral root growth (Heinz tomatoes; tomato, 1 μM norflurazone in media): decreased

CC1=CC(=O)CC(C)(C)[C@@]1(O)/C=C/C(C)=C\C(=O)O [ABA, abscisic acid, reference compound]
lateral root capacity / branching in combination with D15 (screen) (Arabidopsis thaliana [1]): further decreased

N-(4-fluorobenzyl)-methoxycinnamic hydroxamic acid [D15]
lateral root capacity, maximum effect (Arabidopsis thaliana [1]; 100 μM D15): completely inhibited
pIC50 (Arabidopsis thaliana [1]; D15 in 1% MS media, read-out: IC50 concentration for lateral root capacity): 4.52
peak oscillation intensity of pDR5:LUC luminescence vs control roots (lateral root clock; D15-treated roots (100 μM per FIG. 1)): significantly lower
number of pre-branch sites (lateral root clock; D15-treated roots, p=0.009): significantly decreased
decrease in number of stage 1 (WOX5) lateral root primordia (lateral root primordia; [4]): approximately 50%
decrease in number of stage 3 (EN7) lateral root primordia (lateral root primordia; [4]): approximately 50%
emergence of lateral root primordia compared to control roots (lateral root primordia; in vivo): did not inhibit
lateral root length (Heinz tomatoes; Heinz tomatoes, D15 treatment): does not decrease
primary root length (Heinz tomatoes; tomato, D15 treatment): decreased
lateral root branching (Heinz tomatoes; tomato, p=0.99): did not have a negative effect
enzyme preference, LeCCD1 compared to LeNCED1 (LeCCD1): preferentially targets LeCCD1

CC1=C(C=O)C(C)(C)CCC1 [β-cyclocitral]
lateral root capacity / branching in combination with D15 (screen) (Arabidopsis thaliana [1]): increase lateral root branching
rescue of D15 inhibition of lateral root branching (Arabidopsis thaliana [1]): fully rescue
WOX5+ primordia initiation (lateral root primordia; in D15-treated plants): did not rescue
WOX5+ sites (lateral root primordia; in the absence of D15): did not increase
number of EN7+ primordia (lateral root primordia; in the absence of D15, p=0.12): did increase
number of EN7+ primordia (lateral root primordia; in the presence of D15, p=0.02): did increase
primary and lateral root emergence (Arabidopsis thaliana [2]; exogenous volatile application, in the presence and absence of D15): increased
lateral root length (Arabidopsis thaliana [2]; with or without co-treatment of D15): increases
rescue of D15 primary root inhibition (Heinz tomatoes; tomato, D15 plus exogenous β-cyclocitral): could not be rescued
lateral root length (Heinz tomatoes; tomato, dose-dependent): significant increase
rescue of primary root growth in norflurazone-treated plants (Heinz tomatoes; tomato, norflurazone plus β-cyclocitral): fully rescued
primary root length (Heinz tomatoes; tomato, uninhibited plants): significantly increased
crown root growth ([3]; Azucena rice): dramatically increasing
primary root growth ([3]; Azucena rice): dramatically increasing
root system depth and compactness vs control plants ([3]; Azucena rice, 10 μM β-cyclocitral per FIG. 8): deeper and more compact
lateral root length ([3]; rice): decreased
shoot growth ([3]; rice): remained unchanged
dry shoot weight ([3]; rice plants): does not significantly change
lateral root growth (Arabidopsis): inhibited
root length (Arabidopsis): inhibited
shoot mass (Arabidopsis): inhibited
root growth (Arabidopsis; 10 mM applied only to the root tip): sufficient to reduce root growth

CC1=C[C@H](O/C=C2/C(=O)O[C@@H]3c4ccccc4C[C@H]23)OC1=O [GR24, reference compound]
lateral root capacity / branching in combination with D15 (screen) (Arabidopsis thaliana [1]): further decreased

CC1(C)CCC[C@@]2(C)OC(=O)C=C12 [DHAD, dihydroactinidiolide]
lateral root capacity / branching in combination with D15 (screen) (Arabidopsis thaliana [1]): increase lateral root branching
rescue of D15 inhibition of lateral root branching (Arabidopsis thaliana [1]): only partially rescue
lateral root growth (Arabidopsis): inhibited
root length (Arabidopsis): inhibited
shoot mass (Arabidopsis): inhibited

CC1=C(C=O)C(C)(C)CC=C1 [safranal]
herbicidal effect when sprayed on plants (Arabidopsis): herbicidal effects
method of lethality (phenotype) (Arabidopsis): changed root cell morphology

CC(=O)/C=C/C=C(\C)CCC=C(C)C [pseudoionone]
herbicidal effect when sprayed on plants (Arabidopsis): herbicidal effects
method of lethality (phenotype) (Arabidopsis): caused plants to become chlorotic

CC1=C(C=O)C(C)CCC1 (stereo not shown)
rescue of D15 inhibition of lateral root branching (Arabidopsis thaliana [1]): did not have the capacity to rescue
herbicidal effect when sprayed on plants (Arabidopsis): herbicidal effects
